Laboratory results taken from ChEMBL document CHEMBL1151513, “Stereospecific synthesis of chiral acyclic analogues of guanosine” (1992).
The source made the active and inactive calls. The calls are words filed in the database; no cut-off is given here.

How the values were obtained:
MT4 [1] = assay: Compound was tested for its cytotoxic effect against MT-4 cells at 1 mM;value between 10-100 uM; type: functional; conditions: Homo sapiens, read-out: CD50 (the source's name)
[2] = Compound was tested for its in vitro inhibitory effect on the replication of DNA and RNA viruses at 1 mM; No inhibition; type: functional
MT4 [3] = assay: Compound was tested for its cytotoxic effect against MT-4 cells at 1 mM; No effect; type: functional, cell-based; conditions: Homo sapiens
MT4 [4] = assay: Compound was tested for its cytotoxic effect against MT-4 cells at 1 mM; 1 to 10 uM; type: functional; conditions: Homo sapiens, read-out: CD50 (the source's name)

Compound	CC50 (MT4 [1]) [µM]	Activity [2]	Activity (MT4 [3])	CC50 (MT4 [4]) [µM]
Nc1nc(O)c2ncn(C3CC(O)C(O)CO3)c2n1 (stereo not drawn)	< 100	inactive		
Nc1nc(O)c2ncn(C(OCCO)C(O)CO)c2n1 (stereo not drawn)		inactive	inactive	
Nc1nc(O)c2ncn(C(CCO)OCCO)c2n1 (stereo not drawn)		inactive		< 10
Nc1nc(O)c2ncn(C(CO)OCCO)c2n1 (stereo not drawn)		inactive	inactive	
